# Data reported in US20110150961A1, “ANTI-INFECTIVE CATHETERS” (priority 2008, published 2011).
# Where “and” joins values, the source holds several entries; their conditions need not be identical. Equal values may be shown once. Read-outs that look alike come from different tables or passages of the source.
# Tests used:
# S. epidermidis [1] = test: Broth microdilution MIC and MBC (Example 9); format: cell-based
# Method: (§1) Minimal bactericidal concentrations (MBCs) were determined for bacterial isolates associated with catheter-related infections (Attachment 18.18). Broth microdilution MBCs were determined by first performing the standard broth microdilution technique to establish the 5-FU MIC for each organism (CLSI M7-A7). […] were sampled to determine the MBC as defined as the concentration at which a ≧99.9% reduction in the colony forming units relative to the starting inoculum concentration was achieved. When the MBC:MIC ratio for 5-FU was […].
# S. aureus [2] = test: Broth microdilution MIC and MBC (Example 9); format: cell-based
# Method: as §1
# E. coli [3] = test: Broth microdilution MIC and MBC (Example 9); format: cell-based
# Method: as §1
# E. faecalis [4] = test: Broth microdilution MIC and MBC (Example 9); format: cell-based
# Method: as §1
# P. aeruginosa [5] = test: Broth microdilution MIC and MBC (Example 9); format: cell-based
# Method: as §1
# K. pneumoniae [6] = test: Broth microdilution MIC and MBC (Example 9); format: cell-based
# Method: as §1
# Gram-positive organisms = test: MIC testing by broth microdilution, summary (Example 4); format: cell-based; conditions: range over organisms
# Method: (§2) The Gram-positive organisms tested were S. epidermidis, methicillin resistant S. epidermidis (MRSE), S. aureus, methicillin resistant S. aureus (MRSA), E. faecalis and vancomycin resistant E. faecalis, the Gram-negative organisms tested were P. aeruginosa, E. coli and K. pneumoniae .
# (§3) For MIC testing, all isolates were tested against 5-FU by broth microdilution following CLSI methodology (M7-A7).
# Gram-negative isolates = test: as above; format: cell-based; conditions: range over organisms
# Method: as §2, §3
# [7] = IV, cited from earlier work
# [8] = tested on: S. epidermidis and S. aureus
# Source text: Microbial resistance is a concern associated with repeated exposure to anti-microbial agents.
# E. faecalis ATCC 29212 = test: MIC and MBC on ATCC control strains (Example 10); format: cell-based
# Source text: (§4) The Gram-positive organisms tested were S. epidermidis ATCC 12228, S. aureus ATCC 25923, and E. faecalis ATCC 29212. The Gram-negative strains tested were P. aeruginosa ATCC 27853, K. pneumonia ATCC 700603 and E. coli ATCC 25922.
# [9] = tested on: S. epidermidis ATCC 12228; test: MIC and MBC on ATCC control strains (Example 10); format: cell-based
# Source text: as §4
# S. aureus ATCC 25923 = test: MIC and MBC on ATCC control strains (Example 10); format: cell-based
# Source text: as §4
# P. aeruginosa ATCC 27853 = test: MIC and MBC on ATCC control strains (Example 10); format: cell-based
# Source text: as §4
# K. pneumonia ATCC 700603 = test: MIC and MBC on ATCC control strains (Example 10); format: cell-based, K. pneumoniae
# Source text: as §4
# S. epidermidis [10] = test: MIC testing by broth microdilution, clinical isolates (Example 4); format: cell-based
# Method: as §2, §3
# S. aureus [11] = test: as above; format: cell-based
# Method: as §2, §3
# E. coli [12] = test: as above; format: cell-based; conditions: Escherichia coli, N=102
# Method: as §2, §3
# E. faecalis [13] = test: as above; format: cell-based
# Method: as §2, §3
# P. aeruginosa [14] = test: as above; format: cell-based; conditions: Pseudomonas aeruginosa, N=100
# Method: as §2, §3
# K. pneumoniae [15] = test: as above; format: cell-based; conditions: Klebsiella pneumoniae, N=104
# Method: as §2, §3
# mammalian species = mammalian species (PDR 1998); cited from earlier work
# [16] = tested on: Methicillin Resistant Staphylococcus aureus (MRSA); test: Multi-organism zone-of-inhibition screening (Example 15); format: cell-based; conditions: 24 hr, one sample per plate, antibiotic disks 6 mm (Gentamicin 10 μg, penicillin 10 units)
# Method: (§5) The 5-FU CVC was compared with the commercially available Arrow CVC. Gentamicin (10 μg) or penicillin (10 units) disks were used as positive controls and CVC was used as the negative control. The samples were challenged with 3 species of Gram-positive bacteria, 4 species of Gram-negative bacteria and 1 type of yeast. The organisms used to challenge the samples were the following ATCC strains: S. aureus, Methicillin Resistant Staphylococcus aureus (MRSA), S. epidermidis, K. pneumoniae, and Vancomycin Resistant Pediococcus (VRP), E. coli, P. aeruginosa and C. albicans.
# (§6) Organisms were inoculated into 2 mL of liquid agar, which was poured on top of solidified agar. One plate was made per organism. Test articles were inserted into the agar when the plates were solidified and dry. ZOI results were recorded at 24 hr. […] Each plate also contained one negative and one positive control sample and 1 Arrow CVC sample.
# E. coli [17] = test: as above; format: cell-based; conditions: 24 hr, one sample per plate, antibiotic disks 6 mm (Gentamicin 10 μg, penicillin 10 units)
# Method: as §5, §6
# K. pneumoniae [18] = test: as above; format: cell-based; conditions: 24 hr, one sample per plate, antibiotic disks 6 mm (Gentamicin 10 μg, penicillin 10 units)
# Method: as §5, §6
# P. aeruginosa [19] = test: as above; format: cell-based; conditions: 24 hr, one sample per plate, antibiotic disks 6 mm (Gentamicin 10 μg, penicillin 10 units)
# Method: as §5
# (§7) Organisms were inoculated into 2 mL of liquid agar, which was poured on top of solidified agar. One plate was made per organism. Test articles were inserted into the agar when the plates were solidified and dry. ZOI results were recorded at 24 hr. Three 0.5-cm sections of the 5-FU CVC were tested on each plate. Each plate also contained one negative and one positive control sample and 1 Arrow CVC sample.
# [20] = tested on: Vancomycin Resistant Pediococcus (VRP); test: as above; format: cell-based; conditions: 24 hr, one sample per plate, antibiotic disks 6 mm (Gentamicin 10 μg, penicillin 10 units)
# Method: as §5, §6
# S. epidermidis [21] = test: as above; format: cell-based; conditions: 24 hr, one sample per plate, antibiotic disks 6 mm (Gentamicin 10 μg, penicillin 10 units)
# Method: as §5, §6
# S. aureus [22] = test: as above; format: cell-based; conditions: 24 hr, one sample per plate, antibiotic disks 6 mm (Gentamicin 10 μg, penicillin 10 units)
# Method: as §5, §6
# C. albicans = test: as above; format: cell-based; conditions: 24 hr, one sample per plate, antibiotic disks 6 mm (Gentamicin 10 μg, penicillin 10 units)
# Method: as §5, §7
# [23] = Staphylococcus epidermidis, Oxacillin-R, N=78
# [24] = Staphylococcus epidermidis, Oxacillin-S, N=22
# [25] = Staphylococcus epidermidis, all, N=100
# [26] = Staphylococcus aureus, Oxacillin-R, N=40
# [27] = Staphylococcus aureus, Oxacillin-S, N=61
# [28] = Staphylococcus aureus, all, N=101
# [29] = Enterococcus faecalis, all, N=101, read-out: MIC90
molecule,measurement,setting,value
"O=c1[nH]cc(F)c(=O)[nH]1 [5-FU, 5-fluorouracil]",MIC range,"S. epidermidis [1]; S. epidermidis, 10 strains",0.03 to 0.25 µg/mL
same,"bactericidal, number of strains","S. epidermidis [1]; S. epidermidis, by MBC:MIC ratio",6 of the 11
same,MBC range,"S. epidermidis [1]; S. epidermidis, ≧99.9% reduction in CFU",0.03 to 0.25 µg/mL
same,MIC,"S. epidermidis [1]; Staphylococcus epidermidis, methicillin resistant S. epidermidis, N=8, read-out: averaged MIC",0.08 µg/mL
same,MIC range,"S. aureus [2]; S. aureus, 11 strains",0.03 to 0.25 µg/mL
same,"bactericidal, number of strains","S. aureus [2]; S. aureus, by MBC:MIC ratio",4 of the 11
same,MBC range,"S. aureus [2]; S. aureus, ≧99.9% reduction in CFU",0.12 to 32 µg/mL
same,MIC,"S. aureus [2]; Staphylococcus aureus, methicillin resistant S. aureus, N=5, read-out: averaged MIC",0.12 µg/mL
same,MIC range,E. coli [3]; 10 strains,0.25 to 64 µg/mL
same,"bactericidal, number of strains",E. coli [3]; by MBC:MIC ratio,1 of the 10
same,MIC range,E. faecalis [4]; 10 strains,0.008 to 0.12 µg/mL
same,"bactericidal, number of strains",E. faecalis [4]; by MBC:MIC ratio,8 of the 10
same,MBC range,E. faecalis [4]; ≧99.9% reduction in CFU,0.008 to 0.25 µg/mL
same,MBC,"P. aeruginosa [5]; Pseudomonas aeruginosa, ≧99.9% reduction in CFU, read-out: MBC (all strains)",> 512 µg/mL
same,bactericidal activity,P. aeruginosa [5]; by MBC:MIC ratio,no bactericidal activity
same,MBC,"K. pneumoniae [6]; Klebsiella pneumoniae, ≧99.9% reduction in CFU, read-out: MBC (all strains)",> 512 µg/mL
same,bactericidal activity,K. pneumoniae [6]; by MBC:MIC ratio,no bactericidal activity
same,MIC50,Gram-positive organisms,0.015 to 0.12 µg/mL
same,MIC50,Gram-negative isolates,16 to 128 µg/mL
same,plasma levels,[7]; continuous infusion,about 10 μM
same,plasma concentrations,[7]; rapid infusion,0.1-1.0 mM and 13-130 μg/ml
same,Historical 5-FU MIC values,[8],0.06 to 0.12 µg/mL
same,MBC,"E. faecalis ATCC 29212; Enterococcus faecalis, ATCC29212, read-out: MBC",3.7 µg/mL
same,MIC,"E. faecalis ATCC 29212; Enterococcus faecalis, ATCC29212, read-out: MIC",3.7 µg/mL
same,MBC,"[9]; Staphylococcus epidermidis, ATCC12228, read-out: MBC",0.41 µg/mL
same,MIC,"[9]; Staphylococcus epidermidis, ATCC12228, read-out: MIC",0.14 µg/mL
same,MBC,"S. aureus ATCC 25923; Staphylococcus aureus, ATCC25923, read-out: MBC",1.23 µg/mL
same,MIC,"S. aureus ATCC 25923; Staphylococcus aureus, ATCC25923, read-out: MIC",1.23 µg/mL
same,MBC,"P. aeruginosa ATCC 27853; Pseudomonas aeruginosa, ATCC27853, read-out: MBC",> 100 µg/mL
same,MIC,"P. aeruginosa ATCC 27853; Pseudomonas aeruginosa, ATCC27853, read-out: MIC",> 100 µg/mL
same,MBC,"K. pneumonia ATCC 700603; Klebsiella pneumoniae, ATCC700603, read-out: MBC",> 100 µg/mL
same,MIC,"K. pneumonia ATCC 700603; Klebsiella pneumoniae, ATCC700603, read-out: MIC",100 µg/mL
same,MIC50,"S. epidermidis [10]; Oxacillin-R, N=78",0.06 µg/mL
same,MIC50,"S. epidermidis [10]; Oxacillin-S, N=22",0.06 µg/mL
same,MIC90,S. epidermidis [10]; [23],0.5 µg/mL
same,MIC90,S. epidermidis [10]; [24],0.12 µg/mL
same,MIC90,S. epidermidis [10]; [25],0.25 µg/mL
same,MIC50,"S. epidermidis [10]; Staphylococcus epidermidis, all, N=100, read-out: MIC50",0.06 µg/mL
same,MIC50,"S. aureus [11]; Oxacillin-R, N=40",0.12 µg/mL
same,MIC50,"S. aureus [11]; Oxacillin-S, N=61",0.12 µg/mL
same,MIC90,S. aureus [11]; [26],0.12 µg/mL
same,MIC90,S. aureus [11]; [27],0.25 µg/mL
same,MIC90,S. aureus [11]; [28],0.25 µg/mL
same,MIC50,"S. aureus [11]; Staphylococcus aureus, all, N=101, read-out: MIC50",0.12 µg/mL
same,MIC50,E. coli [12],32 µg/mL
same,MIC90,E. coli [12],64 µg/mL
same,MIC50,"E. faecalis [13]; Enterococcus faecalis, all, N=101, read-out: MIC50",0.015 µg/mL
same,MIC90,E. faecalis [13]; [29],0.06 µg/mL
same,MIC50,"E. faecalis [13]; Vancomycin-R, N=21",0.015 µg/mL
same,MIC90,"E. faecalis [13]; Vancomycin-R, N=21",0.06 µg/mL
same,MIC50,"E. faecalis [13]; Vancomycin-S, N=80",0.015 µg/mL
same,MIC90,"E. faecalis [13]; Vancomycin-S, N=80",0.06 µg/mL
same,MIC50,P. aeruginosa [14],16 µg/mL
same,MIC90,P. aeruginosa [14],64 µg/mL
same,MIC50,K. pneumoniae [15],128 µg/mL
same,MIC90,K. pneumoniae [15],> 512 µg/mL
same,LD50,mammalian species,94 to 880 mg/kg
"O=c1[nH]c(=O)n([C@H]2C[C@H](O)[C@@H](CO)O2)cc1F [Flox, floxuridine]",MBC,E. faecalis ATCC 29212,11.11 µg/mL
same,MIC,E. faecalis ATCC 29212,3.7 µg/mL
same,MBC,[9],<0.05 µg/mL
same,MIC,[9],<0.05 µg/mL
same,MBC,S. aureus ATCC 25923,0.14 µg/mL
same,MIC,S. aureus ATCC 25923,<0.05 µg/mL
same,MBC,P. aeruginosa ATCC 27853,>100 µg/mL
same,MIC,P. aeruginosa ATCC 27853,>100 µg/mL
same,MBC,K. pneumonia ATCC 700603,3.7 µg/mL
same,MIC,K. pneumonia ATCC 700603,1.23 µg/mL
C[C@H]1COc2c(N3CCN(C)CC3)c(F)cc3c(=O)c(C(=O)O)cn1c23 [Levofloxacin],MIC90,S. epidermidis [10]; [23],> 128 µg/mL
same,MIC90,S. epidermidis [10]; [24],128 µg/mL
same,MIC90,S. epidermidis [10]; [25],> 128 µg/mL
same,MIC90,S. aureus [11]; [26],32 µg/mL
same,MIC90,S. aureus [11]; [27],16 µg/mL
same,MIC90,S. aureus [11]; [28],32 µg/mL
same,MIC90,E. coli [12],16 µg/mL
same,MIC90,E. faecalis [13]; [29],64 µg/mL
same,MIC90,"E. faecalis [13]; Vancomycin-R, N=21",64 µg/mL
same,MIC90,"E. faecalis [13]; Vancomycin-S, N=80",64 µg/mL
same,MIC90,P. aeruginosa [14],32 µg/mL
same,MIC90,K. pneumoniae [15],0.12 µg/mL
Gentamicin,ZOI,[16],7.1 mm
same,ZOI,E. coli [17],10.5 mm
same,ZOI,K. pneumoniae [18],9.5 mm
same,ZOI,P. aeruginosa [19],12.5 mm
Penicillin,ZOI,[20],0 mm
same,ZOI,S. epidermidis [21],0 mm
same,ZOI,S. aureus [22],41.3 mm
same,ZOI,C. albicans,0 mm
